Measurements from patent EP4721736A1, “PHARMACEUTICAL COMPOSITION FOR EFFECTIVELY DELAYING AND TREATING MYOPIA” (priority 2023, dated 2024).
Where a name gives a salt, the structure may show the parent alone.

Experiments:
[1] = system: negative lens-induced myopia; experiment: Choroidal thickness (OCTA) in the LIM myopia model; assay type: in vivo, guinea pigs; conditions: after the 7-day administration experiment of Example 7; vs vehicle control group
Method: Using the animal subjects in Example 7, choroidal parameters were detected after completion of the experiment (a few animals died during the measurement due to reasons unrelated to the test drugs, so these samples were eliminated). Specifically, choroidal thickness was measured in the LIM myopia model animals after completion of the 7-day administration experiment. Commercially available OCTA (Spectralis HRA + OCT, OCTA, Heidelberg, Germany) modified to be more suitable for animal eyeballs was used to detect the choroidal thickness. Before detection, the guinea pigs were fully anesthetized.

[2] = system: negative lens-induced myopia; experiment: Negative lens-induced myopia (LIM) model in guinea pigs: interocular difference in refraction; conditions: for refraction indicators vs vehicle group: after the end of the administration period (7 days); for refraction indicators vs vehicle group / efficacy (refraction) in comparison between groups: 0.4%, 100 µL daily; for efficacy (refraction) in comparison between groups: day 3 of administration
Text: (§1) Form-deprivation and lens-induced myopia models in guinea pigs are classic and recognized myopic animal models in the art, and may be used for evaluating efficacy and safety of myopia treatment drugs, and methods for establishing such models are well-known to those skilled in the art. For animal modeling and administration routes in the present application, reference is made to previously published scientific documents by the research group (Sen Zhang, Invest Ophthalmol Vis Sci. 2019 Jul 1; 60(8):3074-3083.; Miaozhen Pan, Exp Eye Res. 2021 Jan; 202:108332.).
After individuals with significant ocular diseases or abnormalities were eliminated from healthy 3-week-old tricolor guinea pigs (both males and females), by detecting refraction (using an infrared eccentric photorefraction device) and the eye axis (using A-scan ultrasonography), animals with refractive power between 3 diopters and 8.5 diopters (D), an interocular difference in refraction not exceeding 2 D, and both interocular differences in vitreous chamber depth and axial length not exceeding 0.05 mm were selected. These animals were randomly divided into the following 5 groups. • 1. Lens induction + vehicle control group (Control): monocular wear of a -4 D lens, with 100 µL of vehicle (DMSO:PEG300:Tween80:0.9% normal saline = 1:45:5:49) administrated to the lens-wearing eye daily for 1 week, and the number of samples = 11; • 2. Lens induction + R-alpha lipoic acid experimental group (R.ALA): monocular wear of a -4 D lens, with 100 µL of 0.4% R-alpha lipoic acid administrated to the lens-wearing eye daily for 1 week, and the number of samples = 15; • 3. Lens induction + S-alpha lipoic acid experimental group (S.ALA): monocular wear of a -4 D lens, with 100 µL of 0.4% S-alpha lipoic acid administrated to the lens-wearing eye daily for 1 week, and the number of samples = 13; • 4. Lens induction + dihydrolipoic acid experimental group (DHLA): monocular wear of a -4 D lens, with 100 µL of 0.4% dihydrolipoic acid administrated to the lens-wearing eye daily for 1 week, and the number of samples = 14; • 5.
Beginning on the day of modeling, the corresponding vehicle or drug was administrated to the experimental eye (lens-wearing eye) daily between 9:00 AM and 10:00 AM via periocular subconjunctival injection at an injection volume of 100 µL, once daily for 1 week. All procedures for negative lens-induced myopia modeling, peribulbar injection administration, detection of parameters such as refraction, and data processing for all the subjects were consistent with the schemes previously used by the research group (CN114796205B). At the beginning, on day 3, and at the end of the LIM model efficacy experiment, the refraction was detected in animal subjects. The statistical basis was the difference between the experimental eye (lens-wearing eye) and the contralateral eye of the same subject.

form-deprivation myopia [3] = experiment: Form-deprivation myopia model (FDM) in guinea pigs: interocular differences in refraction and eye axis parameters
Text: as §1
After individuals with significant eye diseases or abnormalities were eliminated from three-week-old tricolor guinea pigs, by detecting refraction (using an infrared eccentric photorefraction device) and the eye axis (using A-scan ultrasonography), animals with refractive power between 3 and 8 diopters (D), an interocular difference in refraction not exceeding 2 D, and interocular differences in vitreous chamber depth and axial length not exceeding 0.05 mm were selected. These animals were randomly divided into two groups: an FD + vehicle control group (1% DMSO + 49% PEG300 + 50% normal saline, by volume) and an FD + 0.94% lipoic acid drug treatment group. At 8:00 AM on day 1 of the experiment, form deprivation was induced in the guinea pigs using a mask method, where the right eye (experimental eye) was occluded and the left eye was left unoccluded (contralateral eye). The FD induction was maintained throughout the entire period of the lipoic acid efficacy experiment, with the hoods only briefly removed for drug administration or ocular examination (for example, refraction detection). Starting on the first day of the efficacy experiment, position of the hood was checked daily at 8:00 AM, 12:00 PM, and 7:00 PM, as well as prior to administration. Individuals with hoods fell off more than three times during the administration period were excluded. Beginning on the day of modeling, the corresponding vehicle or drug (lipoic acid formulation) was administrated to the experimental eye daily between 9:00 AM and 10:00 AM via periocular subconjunctival injection at an injection volume of 100 µL. The vehicle or drug was administrated once daily for two consecutive weeks. Interocular refraction and eye axis parameters of all subjects were measured at the start of the efficacy experiment, 1 week after administration, and after the final administration. All data collection and processing methods were the same as those previously published by the laboratory of the inventors (Pan M, Zhao F, Xie B, et al. Dietary omega-3 polyunsaturated fatty acids are protective for myopia. Proc Natl Acad Sci U S A 2021 Oct 26; 118(43):e2104689118). Statistical basis was the difference between the experimental eye and the contralateral eye in the same subject.
Utilizing the same efficacy evaluation system for myopia treatment in the guinea pig form-deprivation model as described in Example 2, the prevention and control effects of mexidol, pyridoxol, astaxanthin, and blueberry fruit extract on myopia were compared against lipoic acid. The administration route was periocular subconjunctival injection.
The same efficacy evaluation system for myopia treatment in the guinea pig form-deprivation model as described in Example 2 was utilized to evaluate the myopia treatment effects of blueberry fruit extract + lipoic acid compound formulations at different prescription ratios. The administration route was periocular subconjunctival injection.

myopia [4] = conditions: higher concentration of atropine; cited from earlier work
presbyopia [5] = conditions: cited from earlier work
presbyopia [6] = conditions: interim analysis, presbyopia treatment; cited from earlier work
form-deprivation myopia [7] = experiment: Choroidal thickness (OCT) in the guinea pig form-deprivation model; assay type: in vivo, guinea pigs; conditions: Example 9; 0.5% lipoic acid choline ester eye drops, after completion of Example 6; vs negative control group
Method: Choroidal thickness of all animal subjects in Example 2 were detected using Spectralis HRA + OCT (Heidelberg Engineering, Heidelberg, Germany) for 30 minutes to 60 minutes after the final administration (of either the vehicle or lipoic acid).
After completion of the experiment, the choroidal thickness was detected in animals in the two control groups and the 0.5% lipoic acid choline ester eye drop administration group in Example 6 (some animals died during the measurement due to reasons unrelated to the test drugs, so the corresponding samples were eliminated).

myopia [8] = conditions: wild-type mouse myopia models; cited from earlier work
[9] = system: form-deprivation-induced myopia; conditions: mice with pigmentary degeneration of retina caused by a gene mutation (rd10); Landis et al. 2016; cited from earlier work

O=C(O)CCCC[C@@H]1CCSS1 [R-alpha lipoic acid]
choroidal thickness, experimental eye vs contralateral eye, FIG. 13 [1]: could more significantly increase the choroidal thickness
refraction indicators vs vehicle group [2]: extremely significant differences compared with the vehicle group
efficacy (refraction) in comparison between groups [2]: superior to that of the dihydrolipoic acid group
refraction (interocular difference), FIG. 4 (form-deprivation myopia [3]; Example 4, end of the administration period (2 weeks), subconjunctival injection, 0.05% atropine sulfate, 0.3% R-LA, 0.37% ES, 0.3% PH, 0.87% ASTA, 6% BFE, vs control): significant myopia treatment effects

CN1[C@@H]2CC[C@H]1C[C@@H](OC(=O)C(CO)c1ccccc1)C2 (some centres unmarked) [atropine sulfate, Atropine sulfate, reference compound]
effect upon discontinuation (myopia [4]): rebound effect upon discontinuation
choroidal thickness, experimental eye vs contralateral eye, FIG. 13 [1]: could effectively inhibit the decrease in choroidal thickness

O=C(O)CCCC[C@@H](S)CCS (racemic) [dihydrolipoic acid, Dihydrolipoic acid]
choroidal thickness, experimental eye vs contralateral eye, FIG. 13 [1]: could effectively inhibit the decrease in choroidal thickness
refraction indicators vs vehicle group [2]: extremely significant differences compared with the vehicle group
anterior chamber depth and lens thickness, FIG. 10 ([2]; guinea pig, in vivo): did not affect the anterior chamber depth and lens thickness
ocular irritations ([2]; guinea pig, in vivo): neither the optical isomers of lipoic acid nor dihydrolipoic acid caused ocular irritations

C[N+](C)(C)CCOC(=O)CCCC[C@@H]1CCSS1 [lipoic acid choline ester, R-alpha-Lipoic acid choline ester]
bioavailability (presbyopia [5]; eye drops at a concentration of 1.5%): good bioavailability
safety (presbyopia [5]; in vivo): high safety
axial elongation, FIG. 8-1 (B) (form-deprivation myopia [3]; Example 6, 0.5% LACE eye drops twice a day, 25 µL, vs vehicle): significantly inhibit the axial elongation
dose-effect relationship of myopia treatment effect (form-deprivation myopia [3]; Example 6, LACE eye drops 0.5% and 0.15%): positively related dose-effect relationship
progression of negative refraction, FIG. 8-1 (A) (form-deprivation myopia [3]; Example 6, direct eye drop instillation twice a day, 25 µL, 0.5% LACE, 0.05% atropine sulfate positive control, throughout the administration period, vs vehicle): could significantly inhibit progression of negative refraction
anterior chamber depth, lens thickness, corneal curvature, FIG. 8-2 (form-deprivation myopia [3]; guinea pig, in vivo): no statistical differences
drug-induced mydriasis (form-deprivation myopia [3]; guinea pig, in vivo): did not observe drug-induced mydriasis
ocular abnormalities or mydriasis (form-deprivation myopia [3]; guinea pig, in vivo): no ocular abnormalities or mydriasis were observed
primary endpoint (presbyopia [6]): fails to meet the primary endpoint
thinning of the choroid (choroidal thickness), FIG. 12 (form-deprivation myopia [7]): could effectively inhibit thinning of the choroid

O=C1O[C@H]([C@@H](O)CO)C(O)=C1O [vitamin C, ascorbic acid]
therapeutic effects on myopia (myopia [8]): failed to achieve therapeutic effects
form-deprivation-induced myopia [9]: inhibit form-deprivation-induced myopia

O=C(O)CCCC[C@H]1CCSS1 [S-alpha lipoic acid]
efficacy (refraction) in comparison between groups [2]: superior to that of the dihydrolipoic acid group
